# According to patent US20100010035A1, “Novel Dual Action Receptors Antagonists (Dara) at the Ati and Eta Receptors” (priority 2006, published 2010):
# Legend:
# human ETA receptor = biological target: T1, human ETA receptor (Homo sapiens, UniProt P25101); experiment: ETA functional assay (FLIPR Ca efflux, Endothelin-1 at EC80); assay type: cell-based; details: CHO cells over-expressing full length human ETA receptor; Endothelin-1 as agonist at EC80
# T1 construct: CHO cell stably over-expressing the full length human ETA receptor; expressed in transfected cells
# T1 sequence (P25101 21-427): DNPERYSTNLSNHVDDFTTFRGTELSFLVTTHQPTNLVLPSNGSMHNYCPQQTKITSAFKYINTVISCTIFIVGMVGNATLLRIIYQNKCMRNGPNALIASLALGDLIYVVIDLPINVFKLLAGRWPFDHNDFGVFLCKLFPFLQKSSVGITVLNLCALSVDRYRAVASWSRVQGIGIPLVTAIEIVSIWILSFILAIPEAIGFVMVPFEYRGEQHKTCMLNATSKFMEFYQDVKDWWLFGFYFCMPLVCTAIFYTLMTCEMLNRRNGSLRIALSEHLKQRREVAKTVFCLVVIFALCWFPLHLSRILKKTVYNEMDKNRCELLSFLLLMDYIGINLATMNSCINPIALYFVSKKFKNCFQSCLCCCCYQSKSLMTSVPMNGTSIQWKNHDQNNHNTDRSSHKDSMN
# Experimental: (§1) CHO cell stably over-expressing the full length human ETA receptor was cultured in DMEM (Gibco) with 10% FCS (Hyclone) and selection maintained using 0.5 mg/ml G418 (Gibco). Cell at 70% confluence were trypsnised, resuspended in media and counted. 20,000 cells/well were plated into black polystyrene 384-well plates with transparent bottoms and allowed 16 hours to adhere. The cells were loaded with Flou-4 (TEFLABS, USA) dye in BSS (Gibco) for 1 hour and then washed in HBSS and 0.6 μl of diluted compounds in DMSO added to the cells in 30 μl of HBSS in Multimek liquid handling system (Beckman, USA). The cells were then placed in the Fluorometric Imaging Plate Readers (FLIPR, Molecular Devices, USA) and 20 μl of Endothelin-1 peptide as agonist in HBSS (at EC80) was added in the instrument.
# (§2) The Ca efflux was followed for 2 mins and the maximum height of the peak was measured at various compound concentrations and plotted according to the equation
# (§3) and IC50 estimated wherein A is the bottom plateau of the curve i.e. the final minimum y value B is the top of the plateau of the curve i.e. the final maximum y value C is the x value at the middle of the curve. This represents the log EC50 value when A+B=100 D is the slope factor. x is the original known x values. y is the original known y values.
# human AT1 receptor = biological target: T2, human AT1 receptor (Homo sapiens, UniProt P30556); experiment: AT1 functional assay (FLIPR Ca efflux, Angiotensin-II at EC80); assay type: cell-based; details: CHO cells over-expressing full length human AT1 receptor; Angiotensin-II as agonist at EC80
# T2 construct: CHO cell stably over-expressing the full length human AT1 receptor; expressed in transfected cells
# T2 sequence (P30556 1-359): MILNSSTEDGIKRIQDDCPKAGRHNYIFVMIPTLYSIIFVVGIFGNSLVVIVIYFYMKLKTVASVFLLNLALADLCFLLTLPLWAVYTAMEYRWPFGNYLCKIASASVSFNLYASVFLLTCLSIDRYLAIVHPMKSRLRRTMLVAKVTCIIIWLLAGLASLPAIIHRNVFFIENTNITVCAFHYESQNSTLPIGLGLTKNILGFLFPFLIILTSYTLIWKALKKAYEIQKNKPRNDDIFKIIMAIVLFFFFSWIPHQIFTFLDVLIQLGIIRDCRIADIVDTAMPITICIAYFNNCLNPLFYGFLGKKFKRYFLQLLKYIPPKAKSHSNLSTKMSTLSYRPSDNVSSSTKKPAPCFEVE
# Experimental: as §1, with “human AT1” for “human ETA”, “in HBSS” for “in BSS”, “30 μd” for “30 μl”, “of Angiotensin-II” for “of Endothelin-1”, “agonist (at EC80)” for “agonist”, “HBSS” for “HBSS (at EC80)”
# as §2, §3
SMILES,IC50 (human ETA receptor) [nM],IC50 (human AT1 receptor) [nM]
"CCc1cc2c(c(Sc3ccccc3)cc(=O)n2Cc2ccc(-c3ccsc3S(=O)(=O)Nc3noc(C)c3C)cc2)c(CC)n1 [Example 3, 3-[4-(5,7-diethyl-2-oxo-4-phenylsulphanyl-2H-[1,6]naphthyridin-1 ylmethyl)-phenyl]-thiophene-2-sulphonic acid(4,5-dimethyl-isoxazol-3-yl)-amide]",2920,125
"CCc1cc(OCc2ccc(-c3ccsc3S(=O)(=O)Nc3noc(C)c3C)cc2)c(C(=O)c2ccccc2)c(C)n1 [Example 4, 3-[4-(3-Benzoyl-6-ethyl-2-methyl-pyridin-4-yloxymethyl)-phenyl]-thiophene-2-sulphonic acid (4,5-dimethyl-isoxazol-3-yl)-amide]",6200,29
"CCOCc1cc(Cn2nc(C)c3c(C)nc(CC)cc32)ccc1-c1cc(C)sc1S(=O)(=O)Nc1noc(C)c1C [Example 6, 3-[2-Ethoxymethyl-4-(6-ethyl-3,4-dimethyl-pyrazolo[4,3-c]pyridine-1-ylmethyl)-phenyl]-5-methyl-thiophene-2-sulphonic acid(4,5-dimethyl-isoxazol-3-yl)-amide]",562,22.9
"CCc1cc2c(ccc(=O)n2Cc2ccc(-c3cc(C)sc3S(=O)(=O)Nc3noc(C)c3C)cc2)c(CC)n1 [Example 7, 3-[4-(5,7-diethyl-2-oxo-2H-[1,6]naphthyridin-1-yl-methyl)-phenyl]-5-methyl-thiophene-2-sulphonic acid-(4,5 dimethyl-isoxazol-3-yl)-amide]",814,24.6
"CCc1cc2c(c(Oc3ccccc3)cc(=O)n2Cc2ccc(-c3ccsc3S(=O)(=O)Nc3noc(C)c3C)cc2)c(CC)n1 [Example 8, 3-[4-(5,7-diethyl-2-oxo-4-phenoxy-2H-[1,6]naphthyridin-1-ylmethyl)-phenyl]-thiophene-2-sulphonic acid(4,5-dimethyl-isoxazol-3-yl)-amide]",2870,20.8
"CCOCc1cc(Cn2nc(Cn3nc(C)cc3C)c3c(C)nc(C)cc32)ccc1-c1cc(C)sc1S(=O)(=O)Nc1noc(C)c1C [Example 15, 3-{4-[3-(3,5-Dimethyl-pyrazol-1-ylmethyl)-4,6-dimethyl-pyrazolo[4,3-c]pyridin-1-ylmethyl]2-ethoxymethyl-phenyl}-5-methyl-thiophene-2-sulphonic acid (4,5-dimethyl-isoxazol-3-yl)-amide]",503,11.4
Cc1cc2c(c(C)n1)c(-c1ccccc1)nn2Cc1ccc(-c2cc(C)sc2S(=O)(=O)Nc2noc(C)c2C)c(C)c1 [Example 18],1430,7.98
"COCc1cc(Cn2nc(-c3cccs3)c3c(C)nc(C)cc32)ccc1-c1cc(C)sc1S(=O)(=O)Nc1noc(C)c1C [Example 21, 3-[4-(4,6-dimethyl-3-thiophen-2-yl-pyrazolo[4,3-c]pyridin-1-ylmethyl)-2-methoxymethyl-phenyl]-5-methyl-thiophene-2-sulfonic acid (4,5-dimethyl-isoxazol-3-yl)-amide]",464,7.47
"CCOCc1cc(Cn2nc(-c3cccs3)c3c(C)nc(CC)cc32)ccc1-c1cc(C)sc1S(=O)(=O)Nc1noc(C)c1C [Example 22, 3-[2-Ethoxymethyl-4-(6-ethyl-4-methyl-3-thiophen-2-yl-pyrazolo[4,3-c]pyridin-1-ylmethyl)-phenyl]-5-methyl-thiophene-2-sulfonic acid (4,5-dimethyl-isoxazol-3-yl)-amide]",454,25.2
"CCOCc1cc(Cn2nc(-c3ccc(OC)cc3)c3c(C)nc(CC)cc32)ccc1-c1cc(C)sc1S(=O)(=O)Nc1noc(C)c1C [Example 23, 3-{2-Ethoxymethyl-4-[6-ethyl-3-(4-methoxy-phenyl)-4-methyl-pyrazolo[4,3-c]pyridin-1-ylmethyl]-phenyl}-5-methyl-thiophene-2-sulfonic acid (4,5-dimethyl-isoxazol-3-yl)-amide]",248,22.1
"CCc1cc2c(c(C)n1)c(-c1ccc(OC)cc1)nn2Cc1ccc(-c2cc(C)sc2S(=O)(=O)Nc2noc(C)c2C)c(C)c1 [Example 24, 3-{4-[6-Ethyl-3-(4-methoxy-phenyl)-4-methyl-pyrazolo[4,3-c]pyridin-1-ylmethyl]-2-methyl-phenyl}-5-methyl-thiophene-2-sulfonic acid (4,5-dimethyl-isoxazol-3-yl)-amide]",1890,27.4
"CCOc1nc2cccc(C(=O)O)c2n1Cc1ccc(-c2cc(C)sc2S(=O)(=O)Nc2onc(C)c2C)cc1 [Example 26, 3-{4-[2-(3,4-dimethyl-isoxazol-5-ylsulfamoyl)-5-methyl-thiophen-3-yl]-benzyl}-2-ethoxy-3H-benzoimidazole-4-carboxylic acid]",18900,117
"CCOCc1cc(Cn2nc(-c3cccs3)c3c(C)nc(CC)cc32)ccc1-c1cc(C)sc1S(=O)(=O)Nc1onc(C)c1C [Example 27, 3-[2-Ethoxymethyl-4-(6-ethyl-4-methyl-3-thiophen-2-yl-pyrazolo[4,3-c]pyridin-1-ylmethyl)-phenyl]-5-methyl-thiophene-2-sulfonic acid (3,4-dimethyl-isoxazol-5-yl)-amide]",646,15.6
"Cc1cc2c(cc(-c3ccccc3)c(=O)n2Cc2ccc(-c3cc(C)sc3S(=O)(=O)Nc3noc(C)c3C)c(C)c2)c(C)n1 [Example 29, 3-[4-(5,7-dimethyl-2-oxo-3-phenyl-2H-[1,6]naphthyridin-1-ylmethyl)-2-methyl-phenyl]-5-methyl-thiophene-2-sulfonic acid (4,5-dimethyl-isoxazol-3-yl)-amide]",292,15.9
"CCc1cc2c(ccc(=O)n2Cc2ccc(-c3cc(C)sc3S(=O)(=O)Nc3onc(C)c3C)c(C)c2)c(CC)n1 [Example 30, 3-[4-(5,7-diethyl-2-oxo-2H-[1,6]naphthyridin-1-ylmethyl)-2-methyl-phenyl]-5-methyl-thiophene-2-sulfonic acid (3,4-dimethyl-isoxazol-5-yl)-amide]",3320,18.9
CCc1cc2c(c(C)n1)c(-c1ccccc1)nn2Cc1ccc(-c2ccsc2S(=O)(=O)Nc2ncc(C)nc2OC)cc1 [Example 34],7040,189
"CCc1cc2c(ccc(=O)n2Cc2ccc(-c3cc(C)sc3S(=O)(=O)Nc3noc(C)c3C)c(F)c2)c(CC)n1 [Example 35, 3-[4-(5,7-Diethyl-2-oxo-2H-[1,6]naphthyridin-1-ylmethyl)-2-fluoro-phenyl]-5-methyl-thiophene-2-sulfonic acid (4,5-dimethyl-isoxazol-3-yl)-amide]",2570,27.6
"Cc1cc2c(ccc(=O)n2Cc2ccc(-c3cc(C)sc3S(=O)(=O)Nc3noc(C)c3C)c(OCC(C)C)c2)c(C)n1 [Example 36, 3-[4-(5,7-Dimethyl-2-oxo-2H-[1,6]naphthyridin-1-ylmethyl)-2-isobutoxy-phenyl]-5-methyl-thiophene-2-sulfonic acid (4,5-dimethyl-isoxazol-3-yl)-amide]",758,58.3
"Cc1cc2c(c(C)n1)c(-c1ccc(Cl)cc1)nn2Cc1ccc(-c2cc(C)sc2S(=O)(=O)Nc2noc(C)c2C)c(C)c1 [Example 37, 3-{4-[3-(4-Chloro-phenyl)-4,6-dimethyl-pyrazolo[4,3-c]pyridin-1-ylmethyl]-2-methyl-phenyl}-5-methyl-thiophene-2-sulfonic acid (4,5-dimethyl-isoxazol-3-yl)-amide]",407,153
